Reference: patent US20060229358A1, “Pharmaceutical composition containing flavonoids” (Taipei Medical University, priority 2005, published 2006)

What was measured:
PDE2 = target: T1, PDE2 (Cavia porcellus, UniProt A0A286XUV5); assay: Inhibition of cyclic nucleotide PDE activity (Assay I), PDE2; type: biochemical, guinea pig; details: mean ± S.E.M. (n); read-out: IC50 on phosphodiesterase isozyme 2
T1 sequence (A0A286XUV5 22-936): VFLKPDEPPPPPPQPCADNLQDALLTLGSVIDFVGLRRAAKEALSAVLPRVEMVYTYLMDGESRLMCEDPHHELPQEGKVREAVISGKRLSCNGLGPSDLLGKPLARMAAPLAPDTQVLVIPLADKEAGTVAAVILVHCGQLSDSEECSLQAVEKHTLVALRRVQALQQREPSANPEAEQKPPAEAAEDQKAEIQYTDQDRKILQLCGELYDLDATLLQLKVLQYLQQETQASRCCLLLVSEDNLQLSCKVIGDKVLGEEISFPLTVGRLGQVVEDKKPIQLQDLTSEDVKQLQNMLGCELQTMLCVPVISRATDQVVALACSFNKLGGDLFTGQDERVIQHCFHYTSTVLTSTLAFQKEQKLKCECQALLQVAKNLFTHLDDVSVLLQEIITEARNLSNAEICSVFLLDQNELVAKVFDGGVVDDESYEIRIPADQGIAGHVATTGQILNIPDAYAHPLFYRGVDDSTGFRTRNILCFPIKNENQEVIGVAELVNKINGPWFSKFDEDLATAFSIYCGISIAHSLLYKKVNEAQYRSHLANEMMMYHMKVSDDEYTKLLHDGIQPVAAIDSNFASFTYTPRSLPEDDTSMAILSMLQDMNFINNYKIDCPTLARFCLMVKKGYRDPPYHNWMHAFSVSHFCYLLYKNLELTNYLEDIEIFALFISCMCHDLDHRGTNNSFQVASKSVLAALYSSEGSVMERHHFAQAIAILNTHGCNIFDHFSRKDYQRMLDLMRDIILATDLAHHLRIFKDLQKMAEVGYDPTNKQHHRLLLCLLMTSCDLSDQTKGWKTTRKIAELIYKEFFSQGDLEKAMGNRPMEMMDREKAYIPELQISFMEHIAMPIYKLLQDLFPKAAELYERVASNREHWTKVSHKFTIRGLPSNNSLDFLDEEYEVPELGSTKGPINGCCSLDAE
Experimental: (§1) Under a protocol approved by the Animal Care and Use Committee of Taipei Medical University, five male guinea pigs (Hartley), weighing 500-600 g, were sacrificed. The lungs (15 g) or hearts (4 g) taken therefrom were chopped into small pieces and homogenized with a glass/teflon homogenizer (Glas-Col, Terre Haute, Ind., USA) in 10 volumes of cold medium (pH 6.5) containing 20 mM Bis-Tris, 2 mM benzamidine, 2 mM EDTA, 50 mM sodium chloride, 0.1 mM phenylmethanesulfonyl fluoride (PMSF), and 1 mM dithiothreitol. At 4° C., the homogenate was centrifuged at 170 g for 15 min, and the supernatant thereof was then re-centrifuged at 40,000 g for 30 min. […] The column was washed with two bed volumes of homogenate buffer to remove unbound material, where the resin beads therein will bind with proteins, such as PDE proteins. Proteins bound to the Q-sepharose beads were eluted with various concentrations (0.23, 0.34, 0.44, 0.69, and 1.00 M) of NaCl dissolved in homogenate buffer (for each concentration, 40-50 mL elution buffer were applied) at a flow rate of 30 ml/h. Fractions (3 ml each) were collected, and ethylene glycol (EG) was added thereto until a final concentration of 30% (v/v). And then the samples were frozen at −70° C.
(§2) The activities of PDE1-5 in the homogenate were measured with a two-step procedure according to the method of Thompson and Appleman, using cAMP with [^3H]-cAMP or cGMP with [^3 H]-cGMP as substrates. The PDE enzyme prepared (25 μl) with 10 μl inhibitor or the solvents therefor was incubated for 30 min at 37° C. in a total assay buffer, where the final volume of the assay is amounted to 100 μl. In accordance with the features of the PDE isozymes, the assay buffer contains 50 mM Tris/HCl (pH 7.4), 3 mM MgCl2, 1 mM dithiothreitol, and 0.05% BSA, and optionally contains 1 uM cAMP with 0.2 μCi [^3H]-cAMP as a substrate alone or in the presence of 0.1 unit calmodulin with 10 μM CaCl2, or 5 μM cGMP, and 1 μM cGMP with 0.2 μCi [^3H]-cGMP as another substrate alone or in the presence of 0.1 unit calmodulin with 10 μM CaCl2.
(§3) The PDE enzyme and the inhibitors (or their solvent) therefor were mixed and incubated on ice for 30 min previously, and then mixed with the assay buffer. The assay was initiated by transferring the mixture to a water bath at 37° C. Following the other 30 min incubation, the reaction was stopped by transferring the reaction vessel to a bath of boiling water for 3 min. After cooling on ice, 20 μl of the 1 mg/ml of Crotalus atrox venom was added to the reaction mixture, and the mixture was incubated at 37° C. for 10 min. The uncatalyzed substrates, such as cAMP, [^3H]-cAMP, cGMP, or [^3H]-cGMP were removed by the addition of 500 μl of a 1-in-1 Tris-HCl (40 mM) buffer suspension of Dowex resin (1×8-200) with incubation on ice for 30 min, since the bindings of the cyclic nucleotides and the resin. Each tube was then centrifuged for 2 min at 6000 rpm, and 100 μl of the supernatant was removed and counted by a β-counter for calculating the enzyme (PDEs) activity.
(§4) The IC50 values of flavonoids and various reference drugs were calculated using non-linear regression analysis by the software SigmaPlot 7.0 (Sigma Chemical, St. Louis Mo., USA). All values are shown as the mean±S.E.M. Differences among values, which are equal or greater to three groups, were statistically calculated by one-way analysis of variance (ANOVA), and then determined by the least significant difference (LSD). The difference between two values, however, was determined by use of Student's unpaired t-test. Differences were considered statistically significant if the P-value was less than 0.05.

PDE4H (HARBS) = details: references [24-26]; cited from earlier work
PDE1 = assay: Inhibition of cyclic nucleotide PDE activity (Assay I), PDE1; type: biochemical, guinea pig; details: mean ± S.E.M. (n); read-out: IC50 on phosphodiesterase isozyme 1
Experimental: Under a protocol approved by the Animal Care and Use Committee of Taipei Medical University, five male guinea pigs (Hartley), weighing 500-600 g, were sacrificed. The lungs (15 g) or hearts (4 g) taken therefrom were chopped into small pieces and homogenized with a glass/teflon homogenizer (Glas-Col, Terre Haute, Ind., USA) in 10 volumes of cold medium (pH 6.5) containing 20 mM Bis-Tris, 2 mM benzamidine, 2 mM EDTA, 50 mM sodium chloride, 0.1 mM phenylmethanesulfonyl fluoride (PMSF), and 1 mM dithiothreitol. At 4° C., the homogenate was centrifuged at 170 g for 15 min, and the supernatant thereof was then re-centrifuged at 40,000 g for 30 min. The final supernatant fraction was filtered through the 0.22 μm filter and applied to a Q-sepharose fast flow column (2.2×28 cm), which is pre-washed and pre-equilibrated in homogenization buffer. The column was washed with two bed volumes of homogenate buffer to remove unbound material, where the resin beads therein will bind with proteins, such as PDE proteins. Proteins bound to the Q-sepharose beads were eluted with various concentrations (0.23, 0.34, 0.44, 0.69, and 1.00 M) of NaCl dissolved in homogenate buffer (for each concentration, 40-50 mL elution buffer were applied) at a flow rate of 30 ml/h. Fractions (3 ml each) were collected, and ethylene glycol (EG) was added thereto until a final concentration of 30% (v/v). And then the samples were frozen at −70° C. Under these conditions, the enzyme activity was stable for at least 3 months.
In order to eliminate possible contamination of PDE5 by PDE1, the above-collected fractions with enzyme activity was further purified on a calmodulin-agarose column. The column (1.6 cm×4 cm) was pre-equilibrated by a buffer A, which contains 20 mM Bis-tris, 1 mM dithiothreitol, 2 mM benzamidine, 50 mM NaCl, 3 mMMgCl2, 0.1 mM CaCl2, and 0.1 mM PMSF, pH 6.5. The sample (the mixture of PDE5 and PDE1), being purified by the above-mentioned column, with the CaCl2 concentration thereof adjusted to at least 2 mM previously, was loaded and allowed to be absorbed on the gel for 30 min. Then, the PDE isozymes were eluted by stepwise elution using 20 ml of buffer A with 1 M NaCl followed by 20 ml of buffer A with 1 M NaCl and with 1 mM EGTA. PDE5 was collected first followed by PDE1.
as §2, with “CaCl2. In assay of enzyme inhibition, the assay mixture contained with the inhibitors at various concentrations of flavonoids in the Table 1 or the selective PDE1-5 inhibitors as reference drugs. For example, the selective PDE1-5 inhibitors are vinpocetin [30], EHNA [31], milrinone, Ro 20-1724 [33], and zaprinast, respectively.” for “CaCl2.”
The PDE enzyme and the inhibitors (or their solvent) therefor were mixed and incubated on ice for 30 min previously, and then mixed with the assay buffer. The assay was initiated by transferring the mixture to a water bath at 37° C. Following the other 30 min incubation, the reaction was stopped by transferring the reaction vessel to a bath of boiling water for 3 min. After cooling on ice, 20 μl of the 1 mg/ml of Crotalus atrox venom was added to the reaction mixture, and the mixture was incubated at 37° C. for 10 min. […]

PDE3 = assay: Inhibition of cyclic nucleotide PDE activity (Assay I), PDE3; type: biochemical, guinea pig; details: mean ± S.E.M. (n); read-out: IC50 on phosphodiesterase isozyme 3
Experimental: as §1, §2, §3, §4

[1] = target: T2, high affinity rolipram binding sites (HARBS, PDE4H); assay: Binding to particulate HARBS of whole brain, displacement of [3H]-rolipram (Assay II); parameters: species or system guinea pig; details: 2 nM [3H]-rolipram, guinea pig whole brain particulates, FIG. 2; read-out: IC50 for displacement of [3H]-rolipram from HARBS
T2 construct: IC50 for displacement of [3H]-rolipram from HARBS; other: 300 μM, guinea pig, preliminary experimental data; other: guinea pig whole brain particulates; over 300 μM not available due
Experimental: The binding experiments are carried on basis of the methods of Schneider et al. and Zhao et al. with a small modification. Under a protocol approved by the Animal Care and Use Committee of Taipei Medical University, five male guinea pigs (Hartley), weighing 500-600 g, were anesthetized. The whole brains taken therefrom were homogenized with in 10 volumes of cold medium (pH 6.5) containing 20 mM Bis-Tris, 2 mM benzamidine, 2 mM EDTA, 50 mM sodium chloride, 0.1 mM phenylmethanesulfonyl fluoride (PMSF), and 1 mM dithiothreitol. At 4° C., the homogenate was centrifuged at 170 g for 15 min for removing blood vessels and connective tissues, and the supernatant thereof was then re-centrifuged at 40,000 g for 30 min for separating the particulates from the cytosol of cells.
After incubation, the reaction was stopped by transferring the reaction vessel to a bath of crashed ice. Then the reaction mixture was filtered through a punched glass fiber filter (Whatman GF/B) placed in a mini funnel, which was adopted to a 1.5 ml of Eppendorff's tube for collecting the filtrate in the mini centrifuge at 1000 rpm for 10 seconds. By the same way (centrifugation), it is further washed with 0.3 ml reaction buffer each for three times. The Whatman GF/B filter was mixed with 2 ml of cocktail and counted by the β-scintillation counter (Backman, Fullerton, Calif., USA) for counting the radioactivity thereof.

PDE4 = tested on: T3, PDE4; assay: Inhibition of cyclic nucleotide PDE activity (Assay I), PDE4, incl. Lineweaver-Burk analysis; type: biochemical, guinea pig; details: mean ± S.E.M. (n); read-out: IC50 on phosphodiesterase isozyme 4
T3 construct: IC50 on phosphodiesterase isozyme 4; other: mean ± S.E.M. (n)
Experimental: as §1, §2, §3
The dissociation constant of inhibitor binding (Ki) value was determined from the equation of apparent Km as a function of the inhibitor concentration (insert in A and B, respectively). The slope of the equation is equal to the value of […] (where KM is Michaelis constant). The amounts of the total proteins are calculated based on the analytical method reported by Bradford. In FIGS. 1A and 1B, all enzyme activities are shown as nmole of substrate per mg of proteins per minute (nmole/mg/min) hydrolyzed.
The IC50 values of flavonoids and various reference drugs were calculated using non-linear regression analysis by the software SigmaPlot 7.0 (Sigma Chemical, St. Louis Mo., USA).

Structure (SMILES): CCCCCC[C@@H]([C@@H](C)O)n1cnc2c(N)ncnc21 (racemic) [EHNA, erythro-9-(2-hydroxy-3-nonyl)adenine, reference compound]
- IC50 (PDE2): 4.4 ± 1 µM

Structure (SMILES): O=C(Nc1c(Cl)cncc1Cl)C(=O)c1cn(Cc2ccc(F)cc2)c2ccc(O)cc12 [AWD-12-281, N-(3,5-dichloro-pyrid-4-yl)-[1-(4-fluorobenzyl)-5-hydroxy-indole-3-yl]-gly oxylic acid amide]
- PDE4H/PDE4L ratio (PDE4H (HARBS)): about 11

Structure (SMILES): COc1ccc(-c2cc(=O)c3c(O)cc(O)cc3o2)cc1O [Diosmetin]
- IC50 (PDE1): 14.4 ± 6.2 µM
- IC50 (PDE3): > 100 µM

Structure (SMILES): COc1ccc(C2CC(=O)c3c(OC(C)=O)cc(OC(C)=O)cc3O2)cc1OC(C)=O (stereo not shown) [HTA, hesperetin triacetate]
- IC50 [1]: > 300 µM

Structure (SMILES): COc1c(-c2ccc(OC(C)=O)c(OC(C)=O)c2)oc2cc(OC(C)=O)cc(OC(C)=O)c2c1=O [QMPA, Quercetin 3-O-methyl peracetate]
- IC50 [1]: 8.7 µM

Structure (SMILES): CCCCOc1cc(CC2CNC(=O)N2)ccc1OC (stereo not shown) [Ro 20-1724, reference compound]
- IC50 (PDE4): 11.4 ± 1.6 µM
- IC50 [1]: 0.0673 µM

Structure (SMILES): Cc1[nH]c(=O)c(C#N)cc1-c1ccncc1 [milrinone, reference compound]
- IC50 (PDE3): 2.4 ± 0.5 µM

Structure (SMILES): CCOC(=O)C1=C[C@]2(CC)CCCN3CCc4c(n1c1ccccc41)[C@@H]32 [vinpocetine, reference compound]
- IC50 (PDE1): 123 ± 44.9 µM
